From a melting point compilation (Tetko et al.) come the findings set out here.

Consider `O=[N+]([O-])c1ccc(Cc2ccccn2)c([N+](=O)[O-])c1`, for which the melting point was 92 °C. Regarding `Cc1c(C)c(C)c2c(c1C)CC2`, the melting point worked out at 139 °C. For the compound `CCCCCCCCCCOC(=O)c1ccccc1C(=O)OCCCCCC`, the melting point is -4 °C. In the case of `BrCc1ccc(-c2ccccc2)cc1`, the melting point lay within 86 to 87 °C. `CSC(=O)c1cccc2nnsc12`: the melting point was found to be 133 °C.

`Oc1cc(Br)ccc1Cl` displayed a melting point of 57 °C. The compound `O=C(O)C(c1ccc(Cl)cc1)c1ccc(Cl)cc1` came in with a melting point of 168 °C. The same measure for `CC(=O)OCCOc1cc(OCCOC(C)=O)c([N+](=O)[O-])cc1[N+](=O)[O-]`: 91 °C.

As to `O=C(C=Cc1ccc(C=CC(=O)Nc2ccccc2)cc1)Nc1ccccc1`, the melting point fell in the range of 292 to 294 °C. `COc1ccc(C(=CC(=O)N2CCOCC2)c2ccc(F)cc2)cc1OC` displayed a melting point of 108 °C.

`Brc1ccc(OC2CCOCC2)nc1` yielded a melting point of 96 to 98 °C. `CS(=O)(=O)c1ccc(F)c([N+](=O)[O-])c1` had a melting point of 152 to 158 °C. The same measure for `CC(C(=O)Nc1ccc(F)c(F)c1F)(C(F)(F)F)C(F)(F)F`: 44 °C; for `COc1cc2ccc(=O)oc2c(O)c1O`: 231 °C; for `S=C=Nc1ccc(N=Nc2ccccc2)cc1`: 97 °C. Compound `COC(=O)Oc1ccccc1C(=O)O` registered a melting point of 134 °C. Compound `OC(c1ccccc1)c1ccc(Br)cc1` (stereo not given) yielded a melting point of 61 to 63 °C.

`c1cnc2ccc3ncccc3c2c1`: the melting point turned out to be 177 °C.

For the compound `N#CC(=Cc1ccc(Cl)cc1)C(N)=O`, the melting point was 100 °C. The compound `CC(/C=C/c1ccccc1)=C\C(C)=N\Nc1ccc([N+](=O)[O-])cc1[N+](=O)[O-]` registered a melting point of 232 to 234 °C.

As to `CC1CC(C)CC(O)C1` (stereo not given), the melting point was found to be 11.6 °C.

`NNC(=O)c1cc(Cl)cc(Cl)c1`: the melting point was 206 °C. Take `CCC(=O)OC(Cc1ccccc1)(c1ccccc1)C(C)CN(C)C` (stereo not given): the melting point was 75 °C.

The compound `OC(Cn1ccnc1)c1ccc(Cl)cc1Cl` (stereo not given) showed a melting point of 134 to 138 °C. The compound `Ic1cccc(I)c1I` yielded a melting point of 116 °C.

Regarding `CN(C)c1ccc(C=C2SC(=S)NC2=O)cc1`, the melting point lay in the range of 285 to 288 °C. With `CCOC(=O)C1=C(C)NC(=O)NC1c1cccc(OC)c1O` (stereo not given) the figure was 209 °C. In turn, `O=CC(C=O)c1ccc(C(=O)O)cc1[N+](=O)[O-]` returned a melting point of 199 to 205 °C. The same measure for `O=C(COc1ccc(Cl)cc1)Nc1nc2ccc(Br)cc2s1`: 236 °C. In turn, `CCCCCCCc1ccc(C(=O)O)cc1` had a melting point of 102 °C. In turn, `Cc1cc(C)n(CN(Cc2ccccc2)Cn2nc(C)cc2C)n1` registered a melting point of 71 °C. With `ON=C(Cc1ccccc1)c1cccc2ccccc12` the figure was 150 °C; with `NC(=O)CCSCCC(N)=O`, 183 to 186 °C. As to `O=C(O)C#CC(=O)O`, the melting point lay in the range of 180 to 187 °C. `BrCc1ccccc1Br` gave a melting point of 31 °C. In turn, `O=C(O)Cc1csc2ccccc12` registered a melting point of 110 °C.

For the compound `CC(C)(C)c1ccc(C2CCC3(CC2)Cc2ccc(OS(=O)(=O)C(F)(F)F)cc2C3)cc1` (stereo not given), the melting point was 122 to 124 °C.

Compound `Nc1ccc(CN2CCOCC2)cc1` returned a melting point of 99 to 100 °C. With `CC(=O)OC[C@@H](OC(C)=O)[C@@H](OC(C)=O)[C@H](OC(C)=O)[C@@H](OC(C)=O)C(=O)O`, the melting point lay in the range of 109 to 111 °C. As for `CCN(CCO)c1ccc(N=Nc2ccc([N+](=O)[O-])cc2Cl)cc1`, the melting point was 133 °C.

In turn, `CCOC(=O)c1ccc(OC(C)=O)cc1` showed a melting point of 34 °C. In the case of `CCCCc1c(C)nc(NCC)nc1OS(=O)(=O)N(C)C`, the melting point was 50.5 °C. `Cc1ccc(CCl)c2ccccc12` came in with a melting point of 58 to 60 °C.

The compound `COc1c(C)c2c(c(O)c1CC=C(C)CCC(=O)O)C(=O)OC2` had a melting point of 141 °C. Turning to `CC(=O)c1cc(Cl)ccc1O`, the melting point was 53 to 56 °C. As to `O=[N+]([O-])c1ccc(N=Nc2ccc(N(CCO)CCO)cc2Cl)cc1`, the melting point was 190 °C. With `N#Cc1ccc(F)c(F)c1` the figure was 50 °C; with `COC(=O)c1ccc(S(=O)(=O)NC(C)(C)C)n1C`, 104 to 105 °C. With `Cc1cc2ccccc2c(Br)c1C` the figure was 63 °C. With `COC(=O)c1c(C)n[nH]c1C`, the melting point came to 83 °C. `Nc1ccc2[nH]ccc2c1` had a melting point of 132 °C. For the compound `O=C(OCC1OC(O)(COC(=O)c2cccnc2)C(OC(=O)c2cccnc2)C1OC(=O)c1cccnc1)c1cccnc1` (stereo not given), the melting point worked out at 141 °C. Take `N#Cc1ccc(NN)c(Cl)c1`: the melting point lay in the range of 127 to 128 °C. As for `CCOC(=O)c1c(N)sc(C)c1-c1ccccc1`, the melting point lay within 92 to 93 °C. The compound `COC(=O)c1cc2ccccc2[nH]1` displayed a melting point of 151 to 153 °C. The same measure for `CC12CCC(=O)C=C1CCC1C2CCC2(C)C(O)CCC12` (stereo not given): 153 °C. Compound `Cc1ccccc1-n1c(C)nc2ccccc2c1=O` registered a melting point of 120 °C. On to `CC(C)(C)OC(=O)ON=C(C#N)c1ccccc1`, for which the melting point was in the range of 86 to 89 °C. With `CC1(C)OC2(C)CCC1C(=O)OC2(C)C` (stereo not given) the figure was 78 °C. On to `N#CCOc1ccc(Cl)cc1Cl`, for which the melting point lay within 46 to 48 °C.

The compound `Cc1cc(C)c(CS)c(C)c1` gave a melting point of 47 °C. Turning to `Cn1ncc2c(NCCNC3=CC(=O)c4ccccc4C3=O)ncnc21`, the melting point turned out to be 257 °C. With `Cc1c(C)c(C)c(CCl)c(CCl)c1C` the figure was 135 °C; with `OCCNCCNCCO`, 97.5 °C.

For the compound `Cc1cc(OCc2ccccc2)ccc1[N+](=O)[O-]`, the melting point was determined as 70 °C. `CN(C)c1ccc(C2C3=C(CC(C)(C)CC3=O)Nc3ccc4ccccc4c32)cc1` (stereo not given) registered a melting point of 327 °C. In the case of `C=CC1(C)C=C2CCC3C(C)(C(=O)O)CCCC3(C)C2CC1` (stereo not given), the melting point came out at 218 °C. On to `C[N+](C)(C)CC(O)CC(=O)[O-]` (stereo not given), for which the melting point lay in the range of 208 to 212 °C.

Take `N#CCC(N)=S`: the melting point lay in the range of 113 to 119 °C. In the case of `CCOc1cc(C(C)(C)C)ccc1C1COC(c2c(F)cccc2F)=N1` (stereo not given), the melting point came out at 102 °C.

As for `Cc1cc(Br)ccc1N=C=O`, the melting point turned out to be 49 °C.

`COC(=O)c1ccc(C)c(Cl)c1`: the melting point came out at 29 °C. The compound `CCNc1nc(NC(C)(C)C)nc(OC)n1` yielded a melting point of 124 °C. For `Clc1cc(Cl)c2c(oc3c(Cl)cccc32)c1Cl`, the melting point was determined as 177 °C.

Compound `O=C1N(c2ccccc2)C(=O)[C@]2(Cl)C=C(c3ccccc3)[C@]12Cl` displayed a melting point of 152 °C. Compound `C#CCOc1cc(-n2nc(C(C)(C)C)oc2=O)c(Cl)cc1Cl` registered a melting point of 131 °C.

`CC(CC(C)=NO)=NO`: the melting point was 149 °C. Regarding `CCOC(=O)c1c(C)[nH]c2ccc(O)cc12`, the melting point lay in the range of 206 to 210 °C.

Regarding `COc1ccccc1C1CNCCN1` (stereo not given), the melting point turned out to be 80 °C. With `O=C(CC(=O)C(F)(F)F)c1ccccc1` the figure was 39 °C; with `NNC(=O)c1ccc(N)cc1O`, 195 °C; with `N#Cc1cccc(Cn2cncn2)c1`, 91 to 92 °C.

`O=Cc1cccc(CN2CCOCC2)c1` had a melting point of 63 to 64 °C. `CCCCCCS(=O)(=O)O` gave a melting point of 16.1 °C. With `O=C(O)Cc1c(F)cccc1F`, the melting point worked out at 101 °C.

`NC(CSCc1ccccc1)C(=O)Nc1ccc([N+](=O)[O-])cc1` (stereo not given): the melting point fell in the range of 100 to 102 °C. In the case of `C/C(=N\c1cc(C)ccc1O)c1c(O)c2ccccc2n(-c2ccccc2)c1=O`, the melting point lay in the range of 251 to 252 °C.

Compound `S=C(Nc1ccccc1)N1CC(c2ccccc2)CC1c1ccccc1` (stereo not given) displayed a melting point of 188 °C. The same measure for `Cc1ccncc1C=NNc1ccc([N+](=O)[O-])cc1[N+](=O)[O-]`: 156 °C; for `O=Cc1c[nH]c2c(C(=O)O)cccc12`: 308 to 309 °C; for `CC(=O)C(=NNc1ccc(Br)cc1)C(C)=O`: 132 °C.

`O=[N+]([O-])c1ccc(Nc2ccccc2O)c([N+](=O)[O-])c1` showed a melting point of 198 °C. With `Cc1ccccc1N=O` the figure was 73.5 °C.

`COP(=O)(OC)c1ccccc1P(=O)(OC)OC` displayed a melting point of 81 °C.

Take `CC12CCC(C(C(Br)c3ccccc3)OC1=O)C2(C)C` (stereo not given): the melting point was 141 °C. `O=C1c2ccccc2C(=O)N1CCCCCBr` came in with a melting point of 60 °C. With `O=C1c2ccccc2C(=O)N1c1nc2ccccc2[nH]1` the figure was 272 to 275 °C; with `Cc1cc(C)c(O)cc1O`, 126 °C. In the case of `CC(C)C[N+](=O)[O-]`, the melting point was -76.8 °C. Consider `O=C(O)c1c(F)c(F)cc(F)c1F`, for which the melting point is 151 °C.

The compound `NNc1c2ccccc2nc2ccccc12` yielded a melting point of 177 °C.

As to `COc1ccccc1-c1nnc2n1NCS2`, the melting point came out at 123 °C. Take `O=c1[nH]c2scc(-c3ccccc3)c2c(=O)n1-c1ccccc1`: the melting point is 305 to 308 °C. With `CC1C2CCC3C4CC=C5CC(N(C)C)CCC5(C)C4CCC32CN1C` (stereo not given) the figure was 126 °C; with `C[C@H](O)[C@@H](N)C(=O)O`, 274 °C. The same measure for `Nc1nc(-c2ccc(Cl)cc2)cs1`: 169 °C. `Fc1ccc(C=Nn2c(C(F)(F)F)n[nH]c2=S)cc1` showed a melting point of 276 °C. On to `CC(O)(C(=O)c1ccccc1)c1ccccc1` (stereo not given), for which the melting point was 65 °C.

On to `CCCOC(=O)C1=C(C)NC(=S)NC1c1cccc([N+](=O)[O-])c1` (stereo not given), for which the melting point came to 209 °C.

Compound `COc1ccccc1OCC(O)COC(N)=O` (stereo not given) had a melting point of 93 °C.
